Experimental data from patent US6384222B1, “N-benzenesulfonyl-L-proline compounds, preparation method and method for using the compounds in therapy” (Fournier Industrie et Sante, priority 1997, dated 2002).

Columns and labels:
[1] = target: T1, bradykinin B2 receptor (Cavia porcellus, UniProt O70526); assay: Inhibition of [3H]-bradykinin binding to guinea-pig ileum membranes; conditions: test compound 10^-6 M, [3H]-bradykinin 120 pM, 90 min at 20° C.
T1 construct: Ileum segments are isolated from male guinea-pigs; from tissue; host or cells: guinea-pig ileum (Dunkin-Hartley strain; animals from Iffa Credo)
T1 sequence (O70526 1-372): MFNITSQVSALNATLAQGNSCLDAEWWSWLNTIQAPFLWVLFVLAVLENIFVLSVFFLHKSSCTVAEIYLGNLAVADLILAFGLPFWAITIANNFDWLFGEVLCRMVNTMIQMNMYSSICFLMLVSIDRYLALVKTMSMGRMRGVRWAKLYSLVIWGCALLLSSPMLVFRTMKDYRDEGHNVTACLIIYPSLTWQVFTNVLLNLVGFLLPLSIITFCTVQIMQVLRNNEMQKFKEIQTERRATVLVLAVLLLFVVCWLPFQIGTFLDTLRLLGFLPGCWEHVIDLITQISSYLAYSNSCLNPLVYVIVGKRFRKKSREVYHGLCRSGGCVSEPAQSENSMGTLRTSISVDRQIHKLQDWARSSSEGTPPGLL
Procedure: The following pharmacological test is used: Ileum segments are isolated from male guinea-pigs [of the Dunkin-Hartley strain (Iffa Credo, l'Arbresle, France)] and ground in the following TES buffer: TES 25 mM, 1,10-phenanthroline 1 mM (pH 6.8), bacitracin 140 μg/ml, BSA 1 g/l. The membranes are then isolated by centrifugation (18,000 rpm; 20 min 4° C.). The binding studies are carried out in this TES buffer using [^3H]-bradykinin (120 pM) and 50 μg of membrane protein per test (final volume 500 μl) with an equilibrium time of 90 min at 20° C. The percentage inhibition of the binding of [^3H]-bradykinin is then determined in the presence of one of the test compounds according to the invention at a concentration of 10^−6 M.
The results obtained from these tests (shown as “activity”) are collated in Table I below with reference to the Examples given in the description. In this Table, the meaning of the heterocyclic radicals Q is given in the notes and the nature of the salts is indicated by the abbreviations Chl in the case of a hydrochloric acid salt and Ms in the case of a methanesulfonic acid salt.

[2] = target: T1, bradykinin B2 receptor; assay: Antagonism of bradykinin-induced B2 receptor activation on guinea-pig ileum (pKB, Pruneau et al.); conditions: antagonism of bradykinin at B2 receptor
From the text: The compounds according to the invention have an antagonistic effect towards the bradykinin B2 receptor (they inhibit the activation of the B2 receptors which is induced by bradykinin). […] The experimental results, evaluated by the pKB described in the above publication, are reported in the summary Table.

SMILES | Activity % (percentage inhibition of the binding of [3H]-bradykinin) [1] [%] | pKB [2]
CC(=O)c1c(C)nc2c(OCc3c(Cl)ccc(S(=O)(=O)N4CCC[C@H]4C(=O)NCCCNC(=O)c4ccc(C(=N)N)cc4)c3Cl)cccn12.CS(=O)(=O)O.CS(=O)(=O)O [Example 44, 1-[[3-[[3-Acetyl-2-methylimidazo[1,2-a]pyridin-8-yl]oxymethyl]-2,4-dichlorophenyl]sulfonyl]-N-[3-[[4-(aminoiminomethyl)benzoyl]amino]propyl]-2(S)-pyrrolidinecarboxamide Bis(methanestilfonate)] | 100 | –
CS(=O)(=O)O.CS(=O)(=O)O.Cc1cc(=O)n2cccc(OCc3c(Cl)ccc(S(=O)(=O)N4CCC[C@H]4C(=O)NCCCNC(=O)c4ccc(C(=N)N)cc4)c3Cl)c2n1 [Example 30, 1-[[3-[[2-Methyl-4H-pyrido[1,2-a]pyrimidin-9-yl-4-one]oxymethyl]-2,4-dichlorophenyl]sulfonyl]-N-[3-[[4-(aminoiminomethyl)benzoyl]amino]propyl]-2(S)-pyrrolidinecarboxamide Bis(methanesulfonate)] | 99.3 | 7.9
CS(=O)(=O)O.CS(=O)(=O)O.Cc1nc2c(OCc3c(Cl)ccc(S(=O)(=O)N4CCC[C@H]4C(=O)NCCCNC(=O)c4ccc(C(=N)N)cc4)c3Cl)cccn2c1Cl [Example 38, 1-[[3-[[3-Chloro-2-methylimidazo[1,2-a]pyridin-8-yl]oxymethyl]-2,4-dichlorophenyl]sulfonyl]-N-[3-[[4-(aminoimiomethyl)benzoyl]amino]propyl]-2(S)-pyrrolidinecarboxamide Bis(methanesulfonate)] | 100 | –
CS(=O)(=O)O.CS(=O)(=O)O.Cc1nc2c(OCc3c(Cl)ccc(S(=O)(=O)N4CCC[C@H]4C(=O)N4CCN(C(=O)c5ccc(C(=N)N)cc5)CC4)c3Cl)cccn2c1Cl [Example 41] | 100 | –
CS(=O)(=O)O.CS(=O)(=O)O.Cc1cc(=O)n2cccc(OCc3c(Cl)ccc(S(=O)(=O)N4CCC[C@H]4C(=O)N4CCN(C(=O)c5ccc(C(=N)N)cc5)CC4)c3Cl)c2n1 [Example 33] | 96 | 7.8
